We go through 14 compounds from US5750754A, “Heterocyclic compounds” (Zeneca Limited, priority 1993, dated 1998).

Molecules are shown by their SMILES. Structures can show the parent of a compound that is named as a salt.

Assay [1] addresses T1, purified human platelet fibrinogen receptor (GPIIb/IIIa) (Homo sapiens, UniProt P05106+P08514).
T1 construct: is isolated from human platelet lysates; from tissue
Nature of the assay: Test (b): GPIIb/IIIa ELISA, inhibition of biotinylated fibrinogen binding. As to conditions: purified human platelet GPIIb/IIIa, ELISA; read-out: Test (b): pIC50 (-log(IC50)), 50% inhibition of biotinylated fibrinogen binding to GPIIb/IIIa (converted). The method, boiled down:
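Inhibition of biotinylated fibrinogen ([…]) binding to immobilised human platelet fibrinogen receptor, purified by KYGRGDS peptide affinity chromatography, was measured after 2 h at 30 °C. Readout: streptavidin–biotin-HRP colour with TMB at […]; value expressed as pIC50.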

Assay [2] deals with T2, human, citrated, platelet-rich plasma (Homo sapiens, UniProt P05106+P08514).
T2 construct: aggregating human, citrated, platelet-rich plasma; endogenous in cells; host or cells: human platelets in citrated platelet-rich plasma
T2 sequence (P08514 32-887 limits assumed): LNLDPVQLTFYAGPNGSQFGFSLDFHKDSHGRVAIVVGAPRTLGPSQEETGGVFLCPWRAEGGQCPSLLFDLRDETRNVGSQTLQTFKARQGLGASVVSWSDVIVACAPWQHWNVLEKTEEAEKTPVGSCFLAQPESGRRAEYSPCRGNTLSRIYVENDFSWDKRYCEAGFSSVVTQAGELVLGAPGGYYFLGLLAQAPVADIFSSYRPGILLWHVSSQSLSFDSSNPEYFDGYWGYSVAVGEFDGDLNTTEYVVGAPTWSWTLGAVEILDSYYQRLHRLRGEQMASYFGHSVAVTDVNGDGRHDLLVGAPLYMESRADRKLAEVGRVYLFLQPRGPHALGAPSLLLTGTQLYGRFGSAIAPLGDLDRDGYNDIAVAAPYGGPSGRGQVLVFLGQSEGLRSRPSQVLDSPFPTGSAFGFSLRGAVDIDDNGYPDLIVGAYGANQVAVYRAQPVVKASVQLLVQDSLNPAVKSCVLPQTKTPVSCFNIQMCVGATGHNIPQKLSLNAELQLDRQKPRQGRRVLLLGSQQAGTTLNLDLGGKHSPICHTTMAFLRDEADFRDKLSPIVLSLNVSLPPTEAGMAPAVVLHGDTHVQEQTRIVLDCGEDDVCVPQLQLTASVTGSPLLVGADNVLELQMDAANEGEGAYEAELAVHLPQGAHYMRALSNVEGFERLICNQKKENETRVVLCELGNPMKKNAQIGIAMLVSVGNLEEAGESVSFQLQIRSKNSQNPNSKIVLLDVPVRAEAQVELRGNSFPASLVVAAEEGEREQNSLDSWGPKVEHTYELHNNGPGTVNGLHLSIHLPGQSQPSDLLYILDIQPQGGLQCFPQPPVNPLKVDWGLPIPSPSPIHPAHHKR
T2 sequence (P08514 891-1039 limits assumed): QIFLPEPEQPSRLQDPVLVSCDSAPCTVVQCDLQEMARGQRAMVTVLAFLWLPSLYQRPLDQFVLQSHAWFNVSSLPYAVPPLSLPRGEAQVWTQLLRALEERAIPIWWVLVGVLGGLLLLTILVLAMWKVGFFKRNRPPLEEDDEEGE
T2 sequence (P05106 27-788): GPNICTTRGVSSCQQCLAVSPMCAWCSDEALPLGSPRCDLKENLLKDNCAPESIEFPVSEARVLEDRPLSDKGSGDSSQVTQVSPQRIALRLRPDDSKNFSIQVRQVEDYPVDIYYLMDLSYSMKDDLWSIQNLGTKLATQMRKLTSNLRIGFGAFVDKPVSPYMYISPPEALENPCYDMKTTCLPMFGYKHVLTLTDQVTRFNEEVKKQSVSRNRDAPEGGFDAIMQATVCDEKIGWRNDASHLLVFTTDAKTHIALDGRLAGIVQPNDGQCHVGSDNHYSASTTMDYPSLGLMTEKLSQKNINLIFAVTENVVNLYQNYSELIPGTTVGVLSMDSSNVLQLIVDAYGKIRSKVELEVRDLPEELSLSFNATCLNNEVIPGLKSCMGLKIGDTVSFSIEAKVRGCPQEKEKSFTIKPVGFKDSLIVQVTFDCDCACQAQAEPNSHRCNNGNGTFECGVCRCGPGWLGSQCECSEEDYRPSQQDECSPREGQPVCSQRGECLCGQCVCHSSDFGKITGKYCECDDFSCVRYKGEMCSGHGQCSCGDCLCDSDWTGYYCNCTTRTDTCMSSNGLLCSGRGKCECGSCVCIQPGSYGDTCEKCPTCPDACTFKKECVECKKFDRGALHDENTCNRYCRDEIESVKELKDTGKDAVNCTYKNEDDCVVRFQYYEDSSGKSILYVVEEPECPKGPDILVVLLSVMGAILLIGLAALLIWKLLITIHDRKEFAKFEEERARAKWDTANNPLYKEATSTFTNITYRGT
Kind of assay: Test (a): inhibition of ADP stimulated platelet aggregation (Born). Type of assay: cell-based. As to conditions: ADP induced aggregation of human platelet-rich plasma; read-out: Test (a): pA2 value indicating potency of platelet aggregation inhibition (converted). In outline: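 pA2 calculated by comparing ADP EC50-type (50% response) values in presence and absence of compound, averaged across concentrations (generally 10-^5 M to 10-^10 M). Aggregation (Born) induced by ADP in citrated human platelet-rich plasma, giving dose-response curves.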

T1 sequence (P08514 32-887 limits assumed): as the sequence (P08514 32-887 limits assumed) above
T1 sequence (P08514 891-1039 limits assumed): as the sequence (P08514 891-1039 limits assumed) above
T1 sequence (P05106 27-788): as the sequence (P05106 27-788) above

On to `CCCCS(=O)(=O)NC(CC1CCN(C(=O)CN2CCN(c3ccncc3)CC2)CC1)C(=O)OCC` (racemic) [Example 110, Ethyl 2RS-(n-butylsulphonylamino)-3-[1-[2-[4-(4-pyridyl)piperazin-1yl]-acetyl]piperidin-4-yl]propanoate], for which, in assay [1], the IC50 was more than 100000 nM. Besides, the Kb in assay [2] is 6310 nM.

With `O=C(O)Cc1ccc(C(=O)CN2CCN(c3ccncc3)CC2)cc1` [Example 15, 4-[2-[4-(4-Pyridyl)piperazin-1-yl]acetyl]phenylacetic acid, trifluoroacetate salt], in assay [1], the IC50 is 1260 nM. In addition, the Kb in assay [2] was 2510 nM.

`O=C(O)COc1ccc(C(=O)CN2CCN(c3ccncc3)CC2)c2ccccc12` [Example 124, 4-[2-[4-(4-Pyridyl)piperazin-1-yl]acetyl]naphthoxyacetic acid, dihydrochloride]: in assay [1], the IC50 was 251 nM. Besides, the Kb in assay [2] is 794 nM.

For `CCOC(=O)CCCOc1cccc(N2CCN(c3ccncc3)CC2)c1` [Example 226, Ethyl 3-[4-(4-pyridyl)piperazin-1-yl]phenoxybutyrate], the IC50 in assay [1] is 3160 nM. The Kb in assay [2] is 20000 nM.

Take `CCCCS(=O)(=O)NCC1CCN(C(=O)CN2CCN(c3ccncc3)CC2)CC1` [Example 115, N-[1-[2-[4-(4-Pyridiyl)piperazin-1-yl]acetyl]piperidin-4-ylmethyl]-1-butanesulphonamide]: the IC50 in assay [1] was more than 100000 nM. Besides, the Kb in assay [2] is 3980 nM.

As for `Cc1cc(N2CCN(CC(=O)c3ccc(OCC(=O)O)cc3)CC2)c2ccccc2n1` [Example 42, 4-[2-[4-(2-Methyl-4-quinolinyl)piperazin-1-yl]acetyl]phenoxyacetic acid], in assay [1], the IC50 is 6310 nM. Also, the Kb in assay [2] is 50100 nM.

With `O=C(O)C1CCN(C(=O)c2ccc(N3CCN(c4ccncc4)CC3)cc2)CC1` [Example 234, 4-[(4-Pyridyl)piperazin-1-yl]benzoylisonipecotic acid], the IC50 in assay [1] was 200 nM. In addition, in assay [2], the Kb was 631 nM.

`O=C(O)C=Cc1ccc(CN2CCN(c3ccncc3)CC2)cc1` [Example 77, 4-[[4-(4-Pyridyl)piperazin-1-yl]methylene]cinnamic acid]: the IC50 in assay [1] was 501 nM. The Kb in assay [2] was 7940 nM.

Take `CC(C)(C(=O)c1ccc(OCC(=O)O)cc1)N1CCN(c2ccncc2)CC1` [Example 176, 4-[2-[4-(4-Pyridyl)piperazin-1-yl]-2,2-dimethylacetyl]phenoxyacetic acid]: the IC50 in assay [1] is 10 nM. The Kb in assay [2] was 200 nM.

For `O=C(O)COc1ccc(NC(=O)C2CCN(c3ccncc3)CC2)cc1` [Example 164], the IC50 in assay [1] is 39.8 to 63.1 nM. For the same compound, the Kb in assay [2] is 7.94 nM.

As to `CCCCS(=O)(=O)N[C@@H](Cc1ccc(OCCCCC2CCN(c3ccncc3)CC2)cc1)C(=O)O` [Example 84, 2-S-(n-Butylsulphonylamino)-3-[4-[4-[1-(4-pyridyl)piperidin-4-yl]butoxy]phenyl]propionic acid], in assay [1], the IC50 is 20 nM. Also, the Kb in assay [2] is 63.1 nM.

On to `COCCNC(=O)CCCOc1ccc(N2CCN(c3ccncc3)CC2)cc1` [Example 201, N-2-Methoxyethyl-4-[4-[4-(4-pyridyl)piperazine-1-yl]phenoxy]butyramide, trifluoroacetate], for which the IC50 in assay [1] is more than 100000 nM. For the same compound, the Kb in assay [2] is 50100 nM.

For `CCCCS(=O)(=O)Nc1ccc(C(=O)CN2CCN(c3ccncc3)CC2)cc1` [Example 20, N-4-[2-[4-(4-Pyridyl)piperazin-1-yl]acetyl]phenyl-1-butanesulphonamide], in assay [1], the IC50 is 15800 nM. For the same compound, the Kb in assay [2] was 5010 nM.

For `CCCCS(=O)(=O)NC(Cc1ccc(C(=O)CN2CCN(c3ccncc3)CC2)cc1)C(=O)O` (racemic) [Example 67, 2-RS-(n-Butylsulphonylamino)-3-[4-[2-[4-(4-pyridyl)piperazine-1-yl]acetyl]phenyl]propionic acid], the IC50 in assay [1] is 3.16 nM. The Kb in assay [2] is 2.51 nM.
